Laboratory results from US20240268388A1, “AGRICULTURAL AND HORTICULTURAL FUNGICIDAL COMPOSITION” (NIPPON SODA CO., LTD., priority 2021, published 2024).
Read-outs that look alike come from different tables or passages of the source.

Assays:
[1] = system: soybean rust pathogen (Phakopsora pachyrhizi); assay: Soybean rust control test (leaf discs); assay type: in vivo
Experimental: Compounds of component (I) and component (II) were dissolved in dimethyl sulfoxide and diluted with water to the prescribed concentration to prepare a chemical agent solution. A mixture of the prescribed concentration of the chemical agent solution and sterile water was prepared on a microplate, and leaf discs cut from soybean leaves were floated on the microplate. Uredospores of soybean rust pathogen (Phakopsora pachyrhizi) were inoculated and incubated at 25° C. for 9 days. The area percentage of lesions was determined by observing uredospore-forming lesions on the leaf discs, and the control value was calculated. The control value was calculated by the following formula:
Control value (%)=100−{Area percentage of lesions in treatment plot/Area percentage of lesions in untreatment plot}×100.
The results are shown in Tables 8 to 18, along with the expected values calculated as below. Each expected values was calculated from the fungicidal efficacy of a single application of compound of component (I) and the fungicidal efficacy of a single application of compound of component (II) by using Colby's equation:
[formula] • where E represents the expected value of the control value for the composition containing component (I) and component (II), M represents the control value (%) when the component (I) is used alone, and N represents the control value (%) when the component (II) is used alone. When the measured control value for the composition containing component (I) and component (II) is greater than the expected value E, the composition containing component (I) and composition (II) should exert a synergistic effect.

[2] = system: cucumber anthracnose pathogen (Colletotrichum lagenarium); assay: Fungicidal test for cucumber anthracnose (microplate, turbidity at 405 nm); assay type: cell-based; details: for inhibition at 0.025 ppm / inhibition at 0.1 ppm / inhibition at 0.4 ppm: Colletotrichum orbiculare, read-out: growth inhibition rate
Experimental: The compounds were dissolved in dimethyl sulfoxide to prepare a chemical agent solution.
A mixture of the prescribed concentration of the chemical agent solution, cucumber anthracnose pathogen (Colletotrichum lagenarium) conidia, and Vogel medium was prepared on a microplate and incubated at 20° C. in the dark for 7 days.
Each expected value was calculated using Colby's equation:
[formula] • where E represents the expected value of the growth inhibition rate (%), M represents the growth inhibition rate (%) when the component (I) is used alone, and N represents the growth inhibition rate (%) when the component (II) is used alone.

[3] = Table 19, component (II) alone (component (I): None): Ipflufenoquin 0.000026, Iminoctadine trialbesilate 0.0032, Cyflufenamid 10, Cyprodinil 0.00013, Potassium bicarbonate 0.08, Thiophanate-methyl 0.08, Picarbutrazox 0.016, Fludioxonil 0.0032, Florylpicoxamid 0.0032, Metyltetraprole 0.08, Mefentrifluconazole 0.4 ppm
[4] = Table 20, component (II) alone (component (I): None): Ipflufenoquin 0.00064, Iminoctadine trialbesilate 0.0032, Cyflufenamid 10, Cyprodinil 0.00013, Potassium bicarbonate 0.08, Thiophanate-methyl 0.4, Picarbutrazox 0.016, Fludioxonil 0.0032, Florylpicoxamid 0.0032, Metyltetraprole 0.08, Mefentrifluconazole 0.4 ppm
[5] = Table 21, component (II) alone (component (I): None): Ipflufenoquin 0.00064, Iminoctadine trialbesilate 0.0032, Cyflufenamid 10, Cyprodinil 0.00013, Potassium bicarbonate 0.08, Thiophanate-methyl 0.4, Picarbutrazox 0.00064, Fludioxonil 0.0032, Florylpicoxamid 0.0032, Metyltetraprole 0.08, Mefentrifluconazole 0.4 ppm
[6] = Table 22, component (II) alone (component (I): None): Ipflufenoquin 0.00064, Iminoctadine trialbesilate 0.0032, Cyflufenamid 10, Cyprodinil 0.00013, Potassium bicarbonate 0.08, Thiophanate-methyl 0.4, Picarbutrazox 0.00064, Fludioxonil 0.0032, Florylpicoxamid 0.0032, Metyltetraprole 0.08, Mefentrifluconazole 0.4 ppm
[7] = Table 23, component (II) alone (component (I): None): Ipflufenoquin 0.00064, Iminoctadine trialbesilate 0.0032, Cyflufenamid 10, Cyprodinil 0.000026, Potassium bicarbonate 0.08, Thiophanate-methyl 0.4, Picarbutrazox 0.00064, Fludioxonil 0.00064, Florylpicoxamid 0.0032, Metyltetraprole 0.08, Mefentrifluconazole 0.4 ppm
[8] = Table 24, component (II) alone (component (I): None): Ipflufenoquin 0.00064, Iminoctadine trialbesilate 0.0032, Cyflufenamid 10, Cyprodinil 0.00013, Potassium bicarbonate 0.08, Thiophanate-methyl 0.4, Picarbutrazox 0.00064, Fludioxonil 0.00013, Florylpicoxamid 0.0032, Metyltetraprole 0.08, Mefentrifluconazole 0.4 ppm
[9] = Table 14, component (II) alone (component (I): None): Inpyrfluxam 0.00025, Chlorothalonil 0.006, Thiophanate-methyl 0.0001, Tebuconazole 0.000025, Trifloxystrobin 0.0001, Fluazinam 0.006, Prothioconazole 0.000025, Florylpicoxamid 0.0001, Metominostrobin 0.0004 ppm
[10] = Table 16, component (II) alone (component (I): None): Inpyrfluxam 0.000025, Chlorothalonil 0.006, Thiophanate-methyl 0.0001, Tebuconazole 0.000025, Trifloxystrobin 0.0001, Fluazinam 0.006, Prothioconazole 0.000025, Florylpicoxamid 0.0001, Metominostrobin 0.0004 ppm
[11] = Table 17, component (II) alone (component (I): None): Inpyrfluxam 0.000026, Chlorothalonil 0.02, Thiophanate-methyl 0.0004, Tebuconazole 0.0001, Trifloxystrobin 0.0001, Fluazinam 0.006, Prothioconazole 0.000025, Florylpicoxamid 0.0001, Metominostrobin 0.0004 ppm

Compound	growth inhibition rate [2, 3] [%]	growth inhibition rate [2, 4] [%]	growth inhibition rate [2, 5] [%]	growth inhibition rate [2, 6] [%]	growth inhibition rate [2, 7] [%]	growth inhibition rate [2, 8] [%]	other results
CC(C)ON=C1CN(C(=O)Cc2ccc(-c3noc(C(F)(F)F)n3)cc2)C1 [Compound 7]							control value ([1]; component (I) alone, 0.0063 ppm): 16%; control value ([1]; component (I) alone, 0.025 ppm): 32%; control value ([1]; component (I) alone, 0.1 ppm): 64%; control value ([1]; component (I) alone, 0.4 ppm): 94%
CCON=C1CCN(C(=O)Cc2ccc(-c3noc(C(F)(F)F)n3)cc2)CC1 [Compound 8]							control value ([1]; Compound 8 alone, 0.0063 ppm): 10%; control value ([1]; Compound 8 alone, 0.025 ppm): 16%; control value ([1]; Compound 8 alone, 0.1 ppm): 32%; control value ([1]; Compound 8 alone, 0.4 ppm): 75%; control value ([1]; Compound 8 alone, 1.6 ppm): 93%; inhibition at 0.025 ppm ([2]; Compound 8 alone): 58%; inhibition at 0.1 ppm ([2]; Compound 8 alone): 55%; inhibition at 0.4 ppm ([2]; Compound 8 alone): 85%
CON=C1CCN(C(=O)Cc2ccc(-c3noc(C(F)(F)F)n3)cc2)CC1 [Compound 9]							control value ([1]; Compound 9 alone, 0.0063 ppm): 13%; control value ([1]; Compound 9 alone, 0.025 ppm): 34%; control value ([1]; Compound 9 alone, 0.1 ppm): 49%; control value ([1]; Compound 9 alone, 0.4 ppm): 96%; inhibition at 0.025 ppm ([2]; Compound 9 alone): 42%; inhibition at 0.1 ppm ([2]; Compound 9 alone): 49%; inhibition at 0.4 ppm ([2]; Compound 9 alone): 83%
O=C(Cc1ccc(-c2noc(C(F)(F)F)n2)cc1)N1CCC(=NOCC(F)(F)F)CC1 [Compound 10]							control value ([1]; Compound 10 alone, 0.0063 ppm): 0%; control value ([1]; Compound 10 alone, 0.025 ppm): 27%; control value ([1]; Compound 10 alone, 0.1 ppm): 42%; control value ([1]; Compound 10 alone, 0.4 ppm): 66%; control value ([1]; Compound 10 alone, 1.6 ppm): 94%; inhibition at 0.025 ppm ([2]; Compound 10 alone): 63%; inhibition at 0.1 ppm ([2]; Compound 10 alone): 52%; inhibition at 0.4 ppm ([2]; Compound 10 alone): 96%
CC(C)ON=C1CCN(C(=O)Cc2ccc(-c3noc(C(F)(F)F)n3)cc2)CC1 [Compound 11]							control value ([1]; Compound 11 alone, 0.0063 ppm): 6%; control value ([1]; Compound 11 alone, 0.025 ppm): 15%; control value ([1]; Compound 11 alone, 0.1 ppm): 52%; control value ([1]; Compound 11 alone, 0.4 ppm): 70%; control value ([1]; Compound 11 alone, 1.6 ppm): 84%
O=C(Cc1ccc(-c2noc(C(F)(F)F)n2)cc1)N1CCC(=NO)CC1 [Compound 12]							control value ([1]; Compound 12 alone, 0.0063 ppm): 21%; control value ([1]; Compound 12 alone, 0.025 ppm): 33%; control value ([1]; Compound 12 alone, 0.1 ppm): 64%; control value ([1]; Compound 12 alone, 0.4 ppm): 92%
O=C(Cc1ccccc1)N/C(=N\OCC1CC1)c1c(C(F)(F)F)ccc(F)c1F [Cyflufenamid]	64	64	64	64	64	64	
Cc1cc(C2CC2)nc(Nc2ccccc2)n1 [Cyprodinil]	12	12	12	12	0	12	
N#Cc1c[nH]cc1-c1cccc2c1OC(F)(F)O2 [Fludioxonil]	64	64	64	64	0	0	
CCCCCCCCCCCCc1ccc(S(=O)(=O)O)cc1.CCCCCCCCCCCCc1ccc(S(=O)(=O)O)cc1.CCCCCCCCCCCCc1ccc(S(=O)(=O)O)cc1.NC(N)=NCCCCCCCCNCCCCCCCCN=C(N)N [Iminoctadine trialbesilate]	22	22	22	22	22	22	
CC(O)(Cn1cncn1)c1ccc(Oc2ccc(Cl)cc2)cc1C(F)(F)F (stereo not drawn) [Mefentrifluconazole]	64	64	64	64	64	64	
CNC(=O)/C(=N/OC)c1ccccc1Oc1ccccc1 [Metominostrobin]							control value [1, 9]: 27%; control value [1, 10]: 27%; control value [1, 11]: 27%
Cc1cccc(-n2nnn(C)c2=O)c1COc1ccn(-c2ccc(Cl)cc2)n1 [Metyltetraprole]	77	77	77	77	77	77	
Cn1nnnc1/C(=N\OCc1cccc(NC(=O)OC(C)(C)C)n1)c1ccccc1 [Picarbutrazox]	87	87	0	0	0	0	
O=C([O-])O.[K+] [Potassium bicarbonate]	53	53	53	53	53	53	
COC(=O)NC(=S)Nc1ccccc1NC(=S)NC(=O)OC [Thiophanate-methyl]	0	0	0	0	0	0	control value [1, 9]: 27%; control value [1, 10]: 27%; control value [1, 11]: 66%
